What was measured:
Mus musculus [1] = assay: Tested for its antiinflammatory activity in the tetradecanoyl phorbol acetate induced ear edema model (TPA Ear); type: functional
[2] = target: T1, Polyunsaturated fatty acid 5-lipoxygenase (Rattus norvegicus, UniProt P12527); assay: Tested for its inhibitory activity against 5-lipoxygenase
T1 sequence (P12527 whole entry): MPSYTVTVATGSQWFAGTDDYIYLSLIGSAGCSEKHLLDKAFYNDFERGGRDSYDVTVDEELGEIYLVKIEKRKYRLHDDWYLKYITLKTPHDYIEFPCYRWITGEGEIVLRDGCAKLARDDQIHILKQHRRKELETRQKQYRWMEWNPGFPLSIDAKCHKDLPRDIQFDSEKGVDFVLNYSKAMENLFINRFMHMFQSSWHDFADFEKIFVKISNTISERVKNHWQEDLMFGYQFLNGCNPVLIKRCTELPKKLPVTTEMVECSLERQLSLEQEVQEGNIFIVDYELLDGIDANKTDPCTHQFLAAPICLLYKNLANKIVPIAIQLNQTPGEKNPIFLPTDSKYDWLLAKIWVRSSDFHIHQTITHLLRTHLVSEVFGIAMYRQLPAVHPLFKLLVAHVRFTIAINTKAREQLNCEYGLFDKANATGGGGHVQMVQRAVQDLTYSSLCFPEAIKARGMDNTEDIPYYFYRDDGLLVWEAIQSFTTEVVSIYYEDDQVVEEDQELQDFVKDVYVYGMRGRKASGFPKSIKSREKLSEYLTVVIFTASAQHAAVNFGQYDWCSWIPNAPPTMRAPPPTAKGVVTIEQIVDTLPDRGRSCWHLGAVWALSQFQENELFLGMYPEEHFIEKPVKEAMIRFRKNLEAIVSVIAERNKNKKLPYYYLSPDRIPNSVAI

Mus musculus [3] = assay: Tested for its antiinflammatory activity in the arachidonic acid(AA) induced ear edema model; type: functional
[4] = target: Phospholipase A2, major isoenzyme (Sus scrofa, UniProt P00592); assay: Tested for its inhibitory activity against Phospholipase A2 (PLA2); design: species or system Mus musculus
Chain of Phospholipase A2, major isoenzyme (P00592 whole entry): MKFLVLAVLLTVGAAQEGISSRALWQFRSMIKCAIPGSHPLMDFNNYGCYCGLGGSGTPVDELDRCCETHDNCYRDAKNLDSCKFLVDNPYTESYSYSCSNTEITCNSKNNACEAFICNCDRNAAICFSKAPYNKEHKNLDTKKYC

Mus musculus [5] = assay: Tested for its antiinflammatory activity in the contact sensitive (CS) ear edema model; type: functional
Mus musculus [6] = assay: Tested for its antiinflammatory activity in the A-23187 (calcium ionophore) ear edema model.; type: functional
Cyclooxygenase = target: T2, Cyclooxygenase (Bos taurus, UniProt O62664+O62698); assay: Tested for its inhibitory activity against PGS (prostaglandin synthetase).; type: protein assay
T2 sequence (O62664 whole entry): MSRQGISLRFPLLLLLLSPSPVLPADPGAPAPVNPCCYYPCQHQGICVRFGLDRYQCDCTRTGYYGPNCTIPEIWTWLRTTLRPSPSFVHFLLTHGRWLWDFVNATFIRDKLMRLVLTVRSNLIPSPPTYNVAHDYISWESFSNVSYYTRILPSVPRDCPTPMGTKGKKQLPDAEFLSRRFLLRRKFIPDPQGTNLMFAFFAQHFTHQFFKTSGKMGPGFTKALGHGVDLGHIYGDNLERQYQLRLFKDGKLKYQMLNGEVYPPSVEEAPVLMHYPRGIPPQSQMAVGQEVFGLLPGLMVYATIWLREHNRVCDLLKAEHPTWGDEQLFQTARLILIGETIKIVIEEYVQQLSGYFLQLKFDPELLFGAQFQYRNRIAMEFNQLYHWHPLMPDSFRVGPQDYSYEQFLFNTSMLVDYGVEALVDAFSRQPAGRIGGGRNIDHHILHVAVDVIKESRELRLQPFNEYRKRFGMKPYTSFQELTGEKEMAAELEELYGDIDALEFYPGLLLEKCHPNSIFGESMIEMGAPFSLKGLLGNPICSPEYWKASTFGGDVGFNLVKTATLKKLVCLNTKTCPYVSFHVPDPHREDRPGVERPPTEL
T2 sequence (O62698 whole entry): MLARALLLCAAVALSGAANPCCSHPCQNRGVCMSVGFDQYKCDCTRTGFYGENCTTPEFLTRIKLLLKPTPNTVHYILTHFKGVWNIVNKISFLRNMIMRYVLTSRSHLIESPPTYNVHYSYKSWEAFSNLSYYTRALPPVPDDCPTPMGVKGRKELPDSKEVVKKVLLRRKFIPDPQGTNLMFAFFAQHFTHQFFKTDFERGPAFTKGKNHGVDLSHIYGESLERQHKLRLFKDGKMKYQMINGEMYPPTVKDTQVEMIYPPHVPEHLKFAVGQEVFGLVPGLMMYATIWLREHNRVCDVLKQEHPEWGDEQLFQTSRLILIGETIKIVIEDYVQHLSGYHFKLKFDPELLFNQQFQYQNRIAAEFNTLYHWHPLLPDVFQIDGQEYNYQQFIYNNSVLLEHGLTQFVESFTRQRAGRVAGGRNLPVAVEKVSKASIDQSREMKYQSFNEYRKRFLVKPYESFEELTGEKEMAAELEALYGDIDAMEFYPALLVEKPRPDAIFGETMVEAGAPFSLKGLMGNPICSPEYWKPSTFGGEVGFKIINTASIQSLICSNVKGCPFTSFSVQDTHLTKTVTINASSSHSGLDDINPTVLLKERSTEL

IC50 [2] [µM] | IC50 [4] [µM] | IC50 (Cyclooxygenase) [µM] | SMILES | ED50 (Mus musculus [1]) [ug ear-1] | ED50 (Mus musculus [3]) [ug ear-1] | ED50 (Mus musculus [5]) [ug ear-1] | ED50 (Mus musculus [6]) [ug ear-1]
1.2 | 5.4 | 390 | CC(N)CCCNC[C@]1(C)CCC[C@]2(C)c3ccc(C(C)C)cc3CCC12.Cl.Cl (stereo partly specified) | 18.8 | 100 | >100 | >200
8 | 21 | 71 | CC(C)c1ccc2c(c1)CC[C@H]1C(C)(CN)CCC[C@]21C.Cl (stereo partly specified) | 130.7 | >100 | 19.8 | 
> 25 | 90.5 | 124 | CC(=O)NC(CCN(C[C@]1(C)CCC[C@]2(C)c3ccc(C(C)C)cc3CCC12)C(C)=O)c1ccc(F)cc1 (stereo partly specified) | 10 | >100 | >100 | 84.7
> 250 |  |  | COc1ccc2c(c1)c(CC(=O)O)c(C)n2C(=O)c1ccc(Cl)cc1 [INDOMETHACIN] |  | 1000 |  | 254
 | 28 | 62 | CC(C)c1ccc2c(c1)CCC1[C@](C)(CNCC3CCCN3)CCC[C@]21C.Cl.Cl (stereo partly specified) | 18 | >100 | 90 | 200
120 | > 750 |  | C[C@@H]1C[C@H]2[C@@H]3CCC4=CC(=O)C=C[C@]4(C)[C@@]3(F)[C@@H](O)C[C@]2(C)[C@@]1(O)C(=O)CO [DEXAMETHASONE] |  | >100 | 0.7 | 0.5
> 25 | 34.5 | 220 | CC(C)c1ccc2c(c1)CCC1[C@](C)(CNCc3ccccc3C(=O)O)CCC[C@]21C.Cl (stereo partly specified) | 16 | >100 | >100 | 64.1
 | 100 | 32.6 | CCN(CC)CCCC(C)Nc1c2ccc(Cl)cc2nc2ccc(OC)cc12 (stereo unspecified) [QUINACRINE] | >100 | >100 |  | >100
